Measured values: US8158088B2, “Extractant compositions for co-extracting cesium and strontium, a method of separating cesium and strontium from an aqueous feed, and calixarene compounds” (Battelle Energy Alliance, LLC, priority 2008, dated 2012)

Tests used:
Type in all cases: physicochemical
[1] = Solvent stability: strontium distribution ratios as a function of contact time with 1.5 M HNO3
Method: (§1) The stability of the mixed extractant solvents prepared using dialkyloxycalix[4]arenebenzocrown-6 compounds (MC-8, MC-8B, MC-10, MC-10B, MC-12, or MC-12B) relative to BOBCalixC6 in the FPEX I process solvent was determined. Samples were prepared using each of the dialkyloxycalix[4]arenebenzocrown-6 compounds and contacted with 1.5 M HNO3. The samples included 0.007 M of the respective dialkyloxycalix[4]arenebenzo-crown-6 compound (MC-8, MC-8B, MC-10, MC-10B, MC-12, or MC-12B), 0.075 M DtBuCH18C6, 0.75 M Cs-7SB modifier, and 0.003 M TOA in ISOPAR® L. The stability of the dialkyloxycalix[4]arene-benzocrown-6 based solvents was evaluated by measuring the cesium and strontium distribution ratios as a function of contact time. These cesium and strontium distribution ratios for the mixed extractant solvents are presented in Table 9 and Table 10, respectively, along with the cesium and strontium distribution ratios for the FPEX I process solvent. The symbol “-” is used in Tables 9 and 10 to indicate no data was collected.
(§2) This degradation is likely due to chemical attack or nitration of the BOBCalixC6 in the FPEX I process solvent. […] However, it is difficult to compare the relative extents of degradation. In order to compare the different extractants, the distribution ratio data presented in Tables 9 and 10 were normalized to the values obtained at t=0 days contact. The normalized cesium and strontium distribution ratios for the FPEX I process solvent and the mixed extractant solvents as a function of contact time are presented in FIGS. 2 and 3, respectively.

[2] = Third phase formation on contact with nitric acid
[3] = Solvent stability: cesium distribution ratios as a function of contact time with 1.5 M HNO3
Method: as §1, §2

[4] = Strontium distribution ratio (DSr), equilibrium batch contact of mixed extractant solvent with nitric acid feed; details: for Strontium distribution ratio, contact E1: first forward extraction, 1.5 M HNO3 feed simulant, 0.007 M calixarene, 0.075 M DtBuCH18C6, 0.75 M Cs-7SB, 0.003 M TOA in ISOPAR L; for Strontium distribution ratio, contact E1 / Strontium distribution ratio, contact E2 / Strontium distribution ratio, contact E3: 25 °C; for Strontium distribution ratio, contact St1: first strip with 0.01 M HNO3, 35 °C; for Strontium distribution ratio, contact St1 / Strontium distribution ratio, contact E2 / Strontium distribution ratio, contact St2 / Strontium distribution ratio, contact E3: 0.007 M calixarene solvent; for Strontium distribution ratio, contact E2: second forward extraction; for Strontium distribution ratio, contact E2 / Strontium distribution ratio, contact E3: 1.5 M HNO3 feed; for Strontium distribution ratio, contact St2: second strip with 0.01 M HNO3, 35 °C; for Strontium distribution ratio, contact E3: third forward extraction
[5] = Cesium distribution ratio (DCs), equilibrium batch contact of mixed extractant solvent with nitric acid feed; details: for Cesium distribution ratio, contact E1: first forward extraction, 1.5 M HNO3 feed simulant, 0.075 M DtBuCH18C6, 0.75 M Cs-7SB, 0.003 M TOA in ISOPAR L; for Cesium distribution ratio, contact E1 / Cesium distribution ratio, contact E2 / Cesium distribution ratio, contact E3: 25 °C; for Cesium distribution ratio, contact St1: first strip with 0.01 M HNO3, 35 °C; for Cesium distribution ratio, contact St1 / Cesium distribution ratio, contact E2 / Cesium distribution ratio, contact St2 / Cesium distribution ratio, contact E3: 0.007 M calixarene solvent; for Cesium distribution ratio, contact E2: second forward extraction; for Cesium distribution ratio, contact St2: second strip with 0.01 M HNO3, 35 °C; for Cesium distribution ratio, contact E3: third forward extraction
Source text: The distribution of cesium and strontium between the first organic phase (the mixed extractant solvent including the dialkyloxycalix[4]arenebenzocrown-6 compound) and the first aqueous phase (aqueous feed) may be determined by conventional techniques. The distribution ratio for strontium (“DSr”) may be calculated as the ratio of organic phase activity to the aqueous phase activity at equilibrium. High values for the DSr indicate that the strontium is present predominantly in the organic phase while low values for the DSr indicate that the strontium is present predominantly in the aqueous phase. Similarly, the distribution ratio for cesium (“DCs”) may be calculated as the ratio of organic phase activity to the aqueous phase activity at equilibrium. High values for the DCs indicate that the cesium is present predominantly in the organic phase while low values for the DCs indicate that the cesium is present predominantly in the aqueous phase.
Distribution ratios (DM=[M]org/[M]aq) were measured by equilibrium batch contacts between the organic and aqueous phases at an organic-to-aqueous phase ratio (O/A) of unity (O/A=1). All distribution ratio measurements were conducted in a temperature controlled water bath at 25±1° C. The aqueous phase was of the appropriate HNO3 concentration, to which trace quantities (typically, less than 10^−7 M each) of the major radionuclides of interest (^137Cs, ^85Sr, ^154Eu, or ^241Am) were added. The organic and aqueous phases were contacted by vortex mixing for 1 minute. All batch contact experiments were performed at ambient temperature (from approximately 20° C. to approximately 25° C.) unless otherwise noted. Following extraction, the samples were centrifuged for 1 minute and the organic and aqueous phases separated by pipet or centrifugation. The distribution ratios (DSr, or DCs) were calculated as the ratio of the appropriate specific activities in the organic and aqueous phases as determined by γ-ray counting (gamma spectroscopy). The counting time was selected to provide less than approximately 1% statistical uncertainty.
(MC-8, MC-8B, MC-10, MC-10B, MC-12, or MC-12B), 0.075 M DtBuCH18C6, 0.75 M Cs-7SB modifier, and 0.003 M TOA in ISOPAR® L were evaluated for their respective abilities to simultaneously extract cesium and strontium from the aqueous feed simulant composition described in Table 2. The cesium and strontium distribution ratios of the mixed extraction solvents were compared to those of the FPEX I process solvent. The cesium extraction performance and strontium extraction performance of each of the mixed extractant solvents was determined using the batch contact flowsheet presented in FIG. 1, where “E1,” “E2,” and “E3” refer to three forward extraction acts: a first extraction act, a second extraction act, and a third extraction act, respectively, and “St1” and “St2” refer to two backward extraction acts: a first strip act and a second strip act, respectively. […] The aqueous feed 2 and the mixed extractant solvent 4 were combined in a vessel 6 to conduct the extraction. Two phases were formed during the extraction: the first organic phase and the first aqueous phase, with the cesium and strontium substantially distributed in the first organic phase.
The cesium and strontium distribution ratios for the mixed extractant solvents 4 were calculated for the first organic phase and are reported in Tables 3 and 4, respectively, as E1, along with the cesium and strontium distribution ratios for the FPEX I process solvent. The cesium and strontium were stripped from the first (and subsequent) organic phase to recover these radionuclides. For the strips or backward extractions, the first (and subsequent) organic phase was contacted with dilute acidic solution 8, which was 0.01 M HNO3. […]

[6] = contact time 0 days with 1.5 M HNO3, 0.007 M calixarene, 0.075 M DtBuCH18C6, 0.75 M Cs-7SB, 0.003 M TOA in ISOPAR L
[7] = contact time 34 days with 1.5 M HNO3
[8] = contact time 70 days with 1.5 M HNO3
[9] = contact time 278 days with 1.5 M HNO3
[10] = contact time 36 days with 1.5 M HNO3
[11] = contact time 244 days with 1.5 M HNO3

Molecule | Cesium distribution ratio as a function of contact time [3, 6] | Cesium distribution ratio as a function of contact time [3, 9] | Strontium distribution ratio, contact E1 [4] | Strontium distribution ratio, contact St1 [4] | Strontium distribution ratio, contact E2 [4] | Strontium distribution ratio, contact St2 [4] | Strontium distribution ratio, contact E3 [4] | Strontium distribution ratio as a function of contact time [1, 6] | Cesium distribution ratio, contact E1 ([5]; 0.007 M calixarene) | Cesium distribution ratio, contact St1 [5] | Cesium distribution ratio, contact E2 ([5]; 1.5 M HNO3 feed) | Cesium distribution ratio, contact St2 [5] | Cesium distribution ratio, contact E3 ([5]; 1.5 M HNO3 feed) | further results
4′,4′,(5′)-di-(t-butyldicyclohexano)-18-crown-6 [DtBuCH18C6, reference compound] |  |  |  |  |  |  |  |  |  |  |  |  |  | stability (normalized strontium distribution ratios, FIG. 3) ([1]; prolonged contact with HNO3): subject to degradation following prolonged contact with HNO3
CC(C)(C)CC(C)(C)c1ccc2c(c1)OCCOCCOc1c3cccc1Cc1cccc4c1OCCOCCOc1cc(C(C)(C)CC(C)(C)C)ccc1OCCOCCOc1c(cccc1C3)Cc1cccc(c1OCCOCCO2)C4 [BOBCalixC6, calix[4]arene-bis(tert-octylbenzo)-crown-6, reference compound] |  |  |  |  |  |  |  |  |  |  |  |  |  | third phase formation ([2]; 5 M HNO3, 0.025 M BOBCalixC6, 0.075 DtBuCH18C6, 0.003 M TOA, 0.75 M EXXAL 12 in ISOPAR L): Third phase formation was observed
CCC(C)c1ccc(OCC(O)COCC(F)(F)C(F)F)cc1 (centres unmarked) [Cs-7SB, 1-(2,2,3,3-tetrafluoropropoxy)-3-(4-sec-butylphenoxy)-2-propanol, reference compound] |  |  |  |  |  |  |  |  |  |  |  |  |  | nitric acid concentration above which a third phase forms ([2]; mixed extractant solvent with Cs-7SB as modifier added to aqueous feed): > 1.5 M
CCCCC(CC)COc1c2cccc1Cc1cccc3c1OCCOCCOc1ccccc1OCCOCCOc1c(cccc1Cc1cccc(c1OC[C@H](CC)CCCC)C3)C2 (some centres unmarked) [MC-8B, 1,3-alternate-25,27-di(2-ethylhexyl-1-oxy)calix[4]arenebenzocrown-6] | 1.36 | 2.8 | 8.9 | 0.06 | 8.3 | 0.01 | 8.1 | 8.9 | 1.4 | 0.2 | 1.1 | 0.1 | 1.0 | Cesium distribution ratio as a function of contact time [3, 7]: 0.8; Cesium distribution ratio as a function of contact time [3, 8]: 1.5; stability toward hydrolytic degradation (normalized cesium distribution ratios, FIG. 2) ([3]; prolonged contact with 1.5 M HNO3): most resistant toward hydrolytic degradation; Strontium distribution ratio as a function of contact time [1, 7]: 7.2; Strontium distribution ratio as a function of contact time [1, 8]: 9.3; Strontium distribution ratio as a function of contact time [1, 9]: 7.6; cesium distribution ratios, comparison in words ([5]; 0.007 M calixarene, 1.5 M HNO3 feed): lowest distribution ratios
CCCCCCCCCCOc1c2cccc1Cc1cccc3c1OCCOCCOc1ccccc1OCCOCCOc1c(cccc1Cc1cccc(c1OCCCCCCCCCC)C3)C2 [MC-10, 1,3-alternate-25,27-di(decyloxy)calix[4]arenebenzocrown-6] | 3.7 | 1.1 | 9.5 | 0.06 | 8.4 | 0.01 | 8.3 | 9.5 | 3.7 | 0.5 | 2.0 | 0.2 | 1.6 | Cesium distribution ratio as a function of contact time [3, 7]: 3.0; Cesium distribution ratio as a function of contact time [3, 8]: 3.5; Strontium distribution ratio as a function of contact time [1, 7]: 7.7; Strontium distribution ratio as a function of contact time [1, 8]: 9.0; Strontium distribution ratio as a function of contact time [1, 9]: 7.7
CCCCCCCCCCCCOc1c2cccc1Cc1cccc3c1OCCOCCOc1ccccc1OCCOCCOc1c(cccc1Cc1cccc(c1OCCCCCCCCCCCC)C3)C2 [MC-12, 1,3-alternate-25,27-di(dodecyloxy)calix[4]arenebenzocrown-6] | 3.0 | 2.8 | 7.7 | 0.04 | 7.5 | 0.01 | 7.0 | 7.5 | 2.9 | 0.4 | 1.7 | 0.2 | 1.3 | Cesium distribution ratio as a function of contact time [3, 10]: 2.5; Cesium distribution ratio as a function of contact time [3, 11]: 2.2; Strontium distribution ratio as a function of contact time [1, 10]: 7.1; Strontium distribution ratio as a function of contact time [1, 11]: 6.1
CCCCC(CCCC)CCCOc1c2cccc1Cc1cccc3c1OCCOCCOc1ccccc1OCCOCCOc1c(cccc1Cc1cccc(c1OCCCC(CCCC)CCCC)C3)C2 [MC-12B, 1,3-alternate-25,27-di(4-butyloctyl-1-oxy)calix[4]arenebenzocrown-6] | 3.3 |  | 7.7 | 0.03 | 6.7 | 0.02 | 6.3 | 6.3 | 2.5 | 0.4 | 1.3 | 0.2 | 1.1 | Cesium distribution ratio as a function of contact time [3, 10]: 2.1; Cesium distribution ratio as a function of contact time [3, 11]: 1.8; Strontium distribution ratio as a function of contact time [1, 10]: 6.9; Strontium distribution ratio as a function of contact time [1, 11]: 5.7
